Results taken from patent US11286263B2, “Macrocyclic fluorine substituted indole derivatives” (The Broad Institute, Inc., priority 2017, dated 2022).
Where “and” joins values, the source holds several entries; their conditions need not be identical. Equal entries are not always repeated. Where two headings read alike, the source gives them in different places.

Columns and labels:
SUDHL10 [1] = assay: Induction of cytotoxicity, SUDHL10 (Assay 6); conditions: read-out: IC50 Cytotox SUDHL10 [M] (median), SUDHL10 cells, 5 h, CellTiter-Glo
AMO-1 = assay: Antiproliferation assay AMO-1 (Assay 7); type: cell-based; conditions: AMO-1 cells, CellTiter-Glo, single determinations, read-out: IC50 Antiproli AMO-1
How it was run: (§1)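 Treated cells sat 72 h in a humidified 37 °C incubator, outer wells unused, before CellTiter-Glo reagent and a 10 min wait preceded luminescence reading; identical measurement of a parallel day 0 plate defined time zero.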

SUDHL10 [2] = assay: Induction of caspase-3/7 activity, SUDHL10 (Assay 4); type: cell-based; conditions: SUDHL10 cells
How it was run: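 DLBCL lines treated with compounds for 3 h at 37° C.; caspase-3/7 activity read by Caspase-Glo 3/7 luminescence. Medium-only background subtracted; EC50 fitted with bottom fixed at 1 and top set to reference compound's maximal induction.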

BCL-XL = BCL-XL (Homo sapiens (Human), UniProt Q07817); assay: Protein-protein interaction assay BCL-XL/Bad BH3 peptide (BCL-XL assay), TR-FRET; type: binding; conditions: median
BCL-XL, sequence (Q07817 1-212): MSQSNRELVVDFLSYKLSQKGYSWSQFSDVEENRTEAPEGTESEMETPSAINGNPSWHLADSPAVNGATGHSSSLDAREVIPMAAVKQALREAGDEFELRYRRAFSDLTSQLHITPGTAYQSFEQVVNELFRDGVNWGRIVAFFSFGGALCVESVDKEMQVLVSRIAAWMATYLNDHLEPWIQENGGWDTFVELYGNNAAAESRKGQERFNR
Method: Assay 2 Protein-Protein Interaction Assay: BCL-XL/Bad BH3 Peptide (BCL-XL Assay)
The dose-dependent inhibition by the compounds described in this invention of the interaction between BCL-XL and the BH3 domain of Bad (both human) was determined using a steady state binding competition assay with time-resolved fluorescence energy transfer (TR-FRET) readout. For that purpose BCL-XL (amino acids 1-212, C-terminal fused to a hexahistidine (6× His) tag (SEQ ID 3) and a synthetic Bad BH3-derived peptide of sequence Biotin-PEG2-PEG2-NLWAAQRYGRELRR-Nle-SDEFVDSFKK-amide (SEQ ID 4) served as protein receptor and tracer ligand respectively. The recombinant BCL-XL protein (expressed in Ecol) was purchased from BPS Bioscience (San Diego, Calif., USA). The Bad BH3-derived peptide can be obtained from e.g. Biosyntan (Berlin, Germany).
In the assay 11 different concentrations of each compound (0.1 nM, 0.33 nM, 1.1 nM, 3.8 nM, 13 nM, 44 nM, 0.15 μM, 0.51 μM, 1.7 μM, 5.9 μM and 20 μM) were typically measured as duplicates in the same microtiter plate. For that, 100-fold concentrated DMSO solutions were prepared by serial dilutions (1:3.4) of a 2 mM stock solution in a clear, 384-well microtiter plate (Greiner Bio-One, Frickenhausen, Germany). From there, 50 nl were transferred in a dark test plate (Greiner Bio-One, Frickenhausen, Germany). The assay was initiated by addition of 2 μl of a 2,5-fold concentrated His-BCL-XL solution (usually for a 1 nM end concentration in 5 μl reaction volume) in aqueous assay buffer [50 mM Tris/HCl pH 7, 100 mM sodium chloride (NaCl), 50 μM potassium fluoride (KF), 0.005% Tween-20, 2 mM DTT, 0.1% bovine gamma globulin (BGG)] to the compounds in the assay plate. This was followed by a 10-minute incubation step at 22° C. for pre-equilibration of the putative complex between His-BCL-XL and the compounds. After that, 3 μl of a 1.67-fold concentrated solution (in assay buffer) consisting of Bad BH3-derived peptide (1 nM end concentration) and TR-FRET detection reagents [1.67 nM anti-His-Eu cryptate and 1.67 nM streptavidin-XL665 (both from Cisbio Bioassays, Codolet, France)], were added.
The mixture was incubated in the dark for one hour at 22° C. and then overnight at 4° C. The formation of BCL-XL/Bad complexes was determined by measuring the resonance energy transfer of the anti-His-Eu-cryptate antibody to the streptavidin-XL665 present in the reaction. For that purpose, the fluorescence emission at 620 nm and 665 nm after excitation at 330-350 nm was measured in a TR-FRET measuring instrument, for instance a Rubystar or a Pherastar (both from BMG Lab Technologies, Offenburg, Germany) or a Viewlux (Perkin-Elmer). The ratio of the emission at 665 nm and at 622 nm was used as indicator of the amount of BCL-XL/Bad complexes present.
The resulting data (ratio) were normalized, taking 0% inhibition as the mean value of control measurements (usually 32 data points) where all reagents were included. In this case 50 nl DMSO were used instead of compounds. A 100% inhibition corresponded to the mean value of control measurements (usually 32 data points) where all reagents except BCL-XL were included. IC50 values were determined by regression analysis based on a 4 parameter equation (minimum, maximum, IC50, Hill; Y=Max+(Min−Max)/(1+(X/IC50)^Hill) using the Screener Software (Genedata).

SUDHL5 = assay: Antiproliferation assay SUDHL5 (Assay 7); type: cell-based; conditions: SUDHL5 cells, CellTiter-Glo, median, read-out: IC50 Antiproli SUDHL5 [M] (median)
How it was run: as §1

[3] = Homo sapiens, SU-DHL10, 3 h, Caspase-Glo 3/7, median

Row | EC50 (SUDHL10 [2]; 3 h, Caspase-Glo 3/7, median) | IC50 (BCL-XL) | IC50 (SUDHL5; 72 h) | EC50 (SUDHL10 [2]; [3]) | IC50 (SUDHL5; Homo sapiens, SU-DHL-5, 72 h) | Molecule | IC50 (SUDHL10 [1]) | IC50 (AMO-1; 72 h) | IC50 (SUDHL10 [1]; Homo sapiens, SU-DHL10, 5 h) | IC50 (AMO-1; Homo sapiens, AMO1, 72 h)
1 |  | > 20 µM |  | 2.3 µM | 1.2e-06 M | Cc1c2c(nn1C)COCCCCn1c(C(=O)O)c(CCCOc3cccc4c3CCCC4)c3ccc(F)c-2c31 (racemic) [Example 18, (rac)-13-fluoro-11,12-dimethyl-1-(3-((5,6,7,8-tetrahydronaphthalen-1-yl)oxy)propyl)-4,5,6,7,9,11-hexahydropyrazolo[4′,3′:9,10][1]oxa[6]azacycloundecino[8,7,6-hi]indole-2-carboxylic acid] |  | 2.16 µM and 3.19 µM | 1.7e-06 M | 3.98 µM
2 | 0.54 µM | > 20 µM | 3.2e-07 M |  |  | CCc1c2c(nn1C)COCCCCn1c(C(=O)O)c(CCCOc3cccc4cc(F)ccc34)c3ccc(F)c-2c31 (single isomer, unassigned; enantiomer 1) [Example 24, 3-ethyl-4-fluoro-7-{3-[(6-fluoronaphthalen-1-yl)oxy]propyl}-2-methyl-2,10,11,12,13,15-hexahydropyrazolo[4′,3′:9,10][1,6]oxazacycloundecino[8,7,6-hi]indole-8-carboxylic acid (enantiomer 1)] | 6.8e-07 M | 0.878 µM |  | 
3 |  | > 20 µM |  | 7.7 µM | 2.9e-06 M | CCc1nn(C)c2c1-c1c(F)ccc3c(CCCOc4cc(C)c(Cl)c(C)c4)c(C(=O)O)n(c13)CCCCOC2 (racemic) [Example 46, (rac)-1-(3-(4-chloro-3,5-dimethylphenoxy)propyl)-12-ethyl-13-fluoro-10-methyl-4,5,6,7,9,10-hexahydropyrazolo[4′,3′:9,10][1]oxa[6]azacycloundecino[8,7,6-hi]indole-2-carboxylic acid] |  | 9.1 µM | 5.7e-06 M | 8.17 µM
4 |  | > 20 µM |  | 3.8 µM | 1e-06 M | Cc1c2c(nn1C)COCCCCn1c(C(=O)O)c(CCCOc3cccc4c3CCC4)c3ccc(F)c-2c31 (racemic) [Example 19, (rac)-1-(3-((2,3-dihydro-1H-inden-4-yl)oxy)propyl)-13-fluoro-11,12-dimethyl-4,5,6,7,9,11-hexahydropyrazolo[4′,3′:9,10][1]oxa[6]azacycloundecino[8,7,6-hi]indole-2-carboxylic acid] |  | 4.06 µM | 2.1e-06 M | 2.62 µM
5 |  | > 20 µM |  | 4.5 µM | 3e-06 M | CCc1c2c(nn1C)COCCCCn1c(C(=O)O)c(CCCOc3cc(C)c(Cl)c(C)c3)c3ccc(F)c-2c31 (racemic) [Example 31, (rac)-1-(3-(4-chloro-3,5-dimethylphenoxy)propyl)-12-ethyl-13-fluoro-11-methyl-4,5,6,7,9,11-hexahydropyrazolo[4′,3′:9,10][1]oxa[6]azacycloundecino[8,7,6-hi]indole-2-carboxylic acid] |  |  | 3.6e-06 M | > 33 µM
6 |  | > 20 µM |  | 1.7 µM | 1.4e-06 M | CCc1c2c(nn1C)COCCCCn1c(C(=O)O)c(CCCOc3cccc4c3CCCC4)c3ccc(F)c-2c31 (racemic) [Example 29, (rac)-12-ethyl-13-fluoro-11-methyl-1-(3-((5,6,7,8-tetrahydronaphthalen-1-yl)oxy)propyl)-4,5,6,7,9,11-hexahydropyrazolo[4′,3′:9,10][1]oxa[6]azacycloundecino[8,7,6-hi]indole-2-carboxylic acid] |  |  | 1.8e-06 M | 2.44 µM
7 |  | > 20 µM |  | 0.49 µM | 3.7e-07 M | CCc1c2c(nn1C)CN(C)CCCCn1c(C(=O)O)c(CCCOc3cccc4cc(F)ccc34)c3ccc(F)c-2c31 (racemic) [Example 53, (rac)-3-ethyl-4-fluoro-7-{3-[(6-fluoro-1-naphthyhoxy]propyl}-2,14-dimethyl-10,11,12,13,14,15-hexahydro-2H-pyrazolo[3′,4′:8,9][1,6]diazacycloundecino[10,11,1-hi]indole-8-carboxylic acid] |  |  | 6.9e-07 M | 

More lines, now with the values behind:

Row | Molecule | EC50 (SUDHL10 [2]; 3 h, Caspase-Glo 3/7, median) | IC50 (BCL-XL) | IC50 (SUDHL5; 72 h) | EC50 (SUDHL10 [2]; [3]) | IC50 (SUDHL5; Homo sapiens, SU-DHL-5, 72 h) | IC50 (SUDHL10 [1]) | IC50 (AMO-1; 72 h) | IC50 (SUDHL10 [1]; Homo sapiens, SU-DHL10, 5 h) | IC50 (AMO-1; Homo sapiens, AMO1, 72 h)
8 | CCc1nn(C)c2c1-c1c(F)ccc3c(CCCOc4ccc(F)c5ccccc45)c(C(=O)O)n(c13)CCCCOC2 (single isomer, unassigned; enantiomer 1) [Example 42, 3-ethyl-4-fluoro-7-{3-[(4-fluoronaphthalen-1-yl)oxy]propyl}-1-methyl-1,10,11,12,13,15-hexahydropyrazolo[4′,3′:9,10][1,6]oxazacycloundecino[8,7,6-hi]indole-8-carboxylic acid (enantiomer 1)] | 6.3 µM | > 20 µM | 2.1e-06 M |  |  | 9.6e-06 M | 6.96 µM |  | 
9 | CCc1nn(C)c2c1-c1c(F)ccc3c(CCCOc4cccc5c4CCCC5)c(C(=O)O)n(c13)CCCCOC2 (racemic) [Example 44, (rac)-12-ethyl-13-fluoro-10-methyl-1-(3-((5,6,7,8-tetrahydronaphthalen-1-yl)oxy)propyl)-4,5,6,7,9,10-hexahydropyrazolo[4′,3′:9,10][1]oxa[6]azacycloundecino[8,7,6-hi]indole-2-carboxylic acid] |  | > 20 µM |  | 4.5 µM | 5.5e-07 M |  |  | 4.2e-06 M | 7.41 µM
10 | (rac)-1-(3-((2,3-dihydro-1H-inden-4-yl)oxy)propyl)-12-ethyl-13-fluoro-11-methyl-4,5,6,7,9,11-hexahydropyrazolo[4′,3′:9,10][1]oxa[6]azacycloundecino[8,7,6-hi]indole-2-carboxylic acid [Example 30] | 1.7 µM | > 20 µM | 1.5e-06 M |  |  |  | 1.69 µM |  | 
11 | Cc1nn(C)c2c1-c1c(F)ccc3c(CCCOc4cccc5c4CCCC5)c(C(=O)O)n(c13)CCCCOC2 (racemic) [Example 34, (rac)-13-fluoro-10,12-dimethyl-1-(3-((5,6,7,8-tetrahydronaphthalen-1-yl)oxy)propyl)-4,5,6,7,9,10-hexahydropyrazolo[4′,3′:9,10][1]oxa[6]azacycloundecino[8,7,6-hi]indole-2-carboxylic acid] |  | > 20 µM |  | 5.9 µM | 1.7e-06 M |  |  | 4.2e-06 M | 6.92 µM
12 | CCc1nn(C)c2c1-c1c(F)ccc3c(CCCOc4cccc5c4CCC5)c(C(=O)O)n(c13)CCCCOC2 (racemic) [Example 45, (rac)-1-(3-((2,3-dihydro-1H-inden-4-yl)oxy)propyl)-12-ethyl-13-fluoro-10-methyl-4,5,6,7,9,10-hexahydropyrazolo[4′,3′:9,10][1]oxa[6]azacycloundecino[8,7,6-hi]indole-2-carboxylic acid] |  | > 20 µM |  | 6.4 µM | 1.9e-06 M |  |  | 3.4e-06 M | 6.45 µM
